Results as given in patent US10377734B2, “Resist composition, method for forming resist pattern, polyphenol derivative for use in the composition” (Mitsubishi Gas Chemical Company, Inc., priority 2013, dated 2019).

Test: Solubility test of compound in safe solvent
Format: physicochemical
Conditions: 23° C., ultrasonic wave 30 minutes, visual evaluation; for Solubility test of compound in safe solvent CHN: CHN (cyclohexanone); for Solubility test of compound in safe solvent PGME: PGME (propylene glycol monomethyl ether)
Experimental: (1) Solubility Test of Compound in Safe Solvent
The solubility of the compound in CHN, PGME and PGMEA was evaluated according to the following standard using the dissolution amount in each solvent. The dissolution amount was determined by precisely weighing the compound in a test tube at 23° C.; adding the target solvent to the compound so that a predetermined concentration of the liquid to be obtained was set; applying a ultrasonic wave to the liquid in an ultrasonic washing machine for 30 minutes; and visually evaluating the state of the resulting liquid.
A: 5.0% by mass Dissolution amount
B: 3.0% by mass Dissolution amount <5.0% by mass
C: Dissolution amount <3.0% by mass

Solubility test of compound in safe solvent CHN	Solubility test of compound in safe solvent PGME	Solubility test of compound in safe solvent PGMEA	Structure (SMILES)
A (5.0% by mass Dissolution amount)	A (5.0% by mass Dissolution amount)	A (5.0% by mass Dissolution amount)	CC(C)(C)OC(=O)Oc1ccc(C(c2ccc(OC(=O)OC(C)(C)C)cc2)c2ccc3ccc(C(c4ccc(OC(=O)OC(C)(C)C)cc4)c4ccc(OC(=O)OC(C)(C)C)cc4)cc3c2)cc1 [TetP-1-BOC, reference compound]

Structure (SMILES)	Solubility test of compound in safe solvent CHN	Solubility test of compound in safe solvent PGME	Solubility test of compound in safe solvent PGMEA
CC(C)(C)OC(=O)Oc1ccc2c(C(c3ccc(-c4ccccc4)cc3)c3c(OC(=O)OC(C)(C)C)ccc4cc(OC(=O)OC(C)(C)C)ccc34)c(OC(=O)OC(C)(C)C)ccc2c1 [BisN-1-BOC]	A (5.0% by mass Dissolution amount)	B (3.0% by mass Dissolution amount <5.0% by mass)	A (5.0% by mass Dissolution amount)
CC(C)(C)OC(=O)COc1ccc2c(C(c3ccc(-c4ccccc4)cc3)c3c(OCC(=O)OC(C)(C)C)ccc4cc(OCC(=O)OC(C)(C)C)ccc34)c(OCC(=O)OC(C)(C)C)ccc2c1 [BisN-1-MeBOC]	A (5.0% by mass Dissolution amount)	A (5.0% by mass Dissolution amount)	B (3.0% by mass Dissolution amount <5.0% by mass)
CC(C)(C)OC(=O)Oc1ccc2c3c(ccc2c1)Oc1ccc2cc(OC(=O)OC(C)(C)C)ccc2c1C3c1ccc(-c2ccccc2)cc1 [XBisN-1-BOC]	A (5.0% by mass Dissolution amount)	B (3.0% by mass Dissolution amount <5.0% by mass)	A (5.0% by mass Dissolution amount)
CC(C)(C)OC(=O)COc1ccc2c3c(ccc2c1)Oc1ccc2cc(OCC(=O)OC(C)(C)C)ccc2c1C3c1ccc(-c2ccccc2)cc1 [XBisN-1-MeBOC]	A (5.0% by mass Dissolution amount)	A (5.0% by mass Dissolution amount)	B (3.0% by mass Dissolution amount <5.0% by mass)
